Measurements reported in ChEMBL document CHEMBL4732079, “Design, synthesis and antitumor evaluation of new 1,8-naphthalimide derivatives targeting nuclear DNA” (Eur J Med Chem, 2021).
Active and inactive are the calls of the source. The calls are words filed in the database; no cut-off is given here.

Columns and labels:
MGC-803 [1] = assay: Induction of cell cycle arrest in human MGC-803 cells assessed as accumulation of cells at S phase at 1 uM for 24 hrs (Rvb =20.23%); assay type: functional
DNA [2] = assay: Binding affinity to Escherichia coli pBR322 DNA assessed as intercalation at 10 to 100 uM by agarose gel electrophoresis assay; assay type: nucleic-acid assay; details: dose 10-100 µM
MGC-803 [3] = assay: Antiproliferative activity against human MGC-803 cells by MTT assay; assay type: functional, cell-based
MGC-803 [4] = assay: Antitumor activity against human MGC-803 cells xenografted in BALB/c nude mice assessed as tumor inhibitory rate at 15 mg/kg, ip measured after 21 days relative to control; assay type: functional; details: Mus musculus, MGC-803, ip, 504 h, time 21 day
MGC-803 [5] = assay: Induction of cell cycle arrest in human MGC-803 cells assessed as accumulation of cells at G2 phase at 0.5 uM for 24 hrs (reference value: 17.61%); assay type: functional
SK-OV-3 = assay: Antiproliferative activity against human SK-OV-3 cells by MTT assay; assay type: functional, cell-based
MGC-803 [6] = assay: Induction of cell cycle arrest in human MGC-803 cells assessed as accumulation of cells at G2 phase at 1 uM for 24 hrs (reference value: 17.61%); assay type: functional
MGC-803 [7] = assay: Antitumor activity against human MGC-803 cells xenografted in BALB/c nude mice assessed as tumor increment rate at 5 mg/kg, ip measured after 21 days relative to control; assay type: functional; details: time 21 day
DNA [8] = assay: Induction of DNA damage in human MGC-803 cells assessed as long DNA tails at 1 uM after 24 hrs by comet assay; assay type: cell-based
MGC-803 [9] = assay: Induction of cell cycle arrest in human MGC-803 cells assessed as accumulation of cells at S phase at 0.5 uM for 24 hrs (Rvb =20.23%); assay type: functional
DNA [10] = assay: Induction of DNA damage in human MGC-803 cells assessed as increase in p-ATM levels at 0.5 to 1 uM by Western blot analysis; assay type: cell-based; details: dose 0.5-1 µM
MGC-803 [11] = assay: Induction of cell cycle arrest in human MGC-803 cells assessed as accumulation of cells at G2 phase at 0.25 uM for 24 hrs (reference value: 17.61%); assay type: functional
MGC-803 [12] = assay: Induction of apoptosis in human MGC-803 cells assessed as viable cells at 1 uM after 24 hrs (reference value: 93.6%); assay type: functional; details: read-out: Activity
DNA [13] = assay: Induction of DNA damage in human MGC-803 cells assessed as increase in p-H2AX levels at 0.5 to 1 uM by Western blot analysis; assay type: cell-based; details: dose 0.5-1 µM
MGC-803 [14] = assay: Induction of apoptosis in human MGC-803 cells assessed as viable cells at 0.5 uM after 24 hrs (reference value: 93.6%); assay type: functional; details: read-out: Activity
SMMC-7721 = assay: Antiproliferative activity against human SMMC-7721 cells by MTT assay; assay type: functional, cell-based
MGC-803 [15] = assay: Induction of apoptosis in human MGC-803 cells assessed as late apoptotic cells at 2 uM after 24 hrs (reference value: 2.6%); assay type: functional
T-24 = assay: Antiproliferative activity against human T-24 cells by MTT assay; assay type: functional, cell-based
[16] = Toxicity in BALB/c nude mouse xenografted with human MGC-803 cells assessed effect on body weight at 5 to 15 mg/kg, ip measured after 21 days; assay type: organism-based; details: in vivo, 504 h, dose 5-15 mg/kg, time 21 day
MGC-803 [17] = assay: Induction of apoptosis in human MGC-803 cells assessed as increase in caspase-3 expression at 0.5 to 1 uM by Western blot analysis; assay type: functional, cell-based; details: dose 0.5-1 µM
MGC-803 [18] = assay: Induction of apoptosis in human MGC-803 cells assessed as late apoptotic cells at 0.5 uM after 24 hrs (reference value: 2.6%); assay type: functional
A549 = assay: cells; details: Homo sapiens
Description: Antiproliferative activity against human A549 cells by MTT assay

MGC-803 [19] = assay: Upregulation of p21 expression in human MGC-803 cells at 0.5 to 1 uM by Western blot analysis; assay type: functional, cell-based; details: dose 0.5-1 µM
MGC-803 [20] = assay: Induction of apoptosis in human MGC-803 cells assessed as increase in Bax expression at 0.5 to 1 uM by Western blot analysis; assay type: functional, cell-based; details: dose 0.5-1 µM
MGC-803 [21] = assay: Induction of cell cycle arrest in human MGC-803 cells assessed as accumulation of cells at S phase at 0.25 uM for 24 hrs (Rvb =20.23%); assay type: functional
MGC-803 [22] = assay: Induction of apoptosis in human MGC-803 cells assessed as necrotic cells at 2 uM after 24 hrs (reference value: 0.9%); assay type: functional
MGC-803 [23] = assay: Induction of apoptosis in human MGC-803 cells assessed as decrease in Bcl2 expression at 0.5 to 1 uM by Western blot analysis; assay type: functional, cell-based; details: dose 0.5-1 µM
MGC-803 [24] = assay: Induction of apoptosis in human MGC-803 cells assessed as early apoptotic cells at 2 uM after 24 hrs (reference value: 2.9%); assay type: functional
MGC-803 [25] = assay: Induction of apoptosis in human MGC-803 cells assessed as late apoptotic cells at 1 uM after 24 hrs (reference value: 2.6%); assay type: functional
MGC-803 [26] = assay: Induction of cell cycle arrest in human MGC-803 cells assessed as accumulation of cells at G1 phase at 0.5 uM for 24 hrs (reference value: 62.6%); assay type: functional
MGC-803 [27] = assay: Induction of apoptosis in human MGC-803 cells assessed as viable cells at 2 uM after 24 hrs (reference value: 93.6%); assay type: functional; details: read-out: Activity
MGC-803 [28] = assay: Induction of apoptosis in human MGC-803 cells assessed as early apoptotic cells at 0.5 uM after 24 hrs (reference value: 2.9%); assay type: functional
MGC-803 [29] = assay: Antitumor activity against human MGC-803 cells xenografted in BALB/c nude mice assessed as tumor increment rate at 15 mg/kg, ip measured after 21 days relative to control; assay type: functional; details: time 21 day
MGC-803 [30] = assay: Induction of apoptosis in human MGC-803 cells assessed as necrotic cells at 0.5 uM after 24 hrs (reference value: 0.9%); assay type: functional
MGC-803 [31] = assay: Induction of apoptosis in human MGC-803 cells assessed as early apoptotic cells at 1 uM after 24 hrs (reference value: 2.9%); assay type: functional
MGC-803 [32] = assay: Induction of apoptosis in human MGC-803 cells assessed as increase in caspase-9 expression at 0.5 to 1 uM by Western blot analysis; assay type: functional, cell-based; details: dose 0.5-1 µM
MGC-803 [33] = assay: Downregulation of cyclinE expression in human MGC-803 cells at 0.5 to 1 uM by Western blot analysis; assay type: functional, cell-based; details: dose 0.5-1 µM
MGC-803 [34] = assay: Antitumor activity against human MGC-803 cells xenografted in BALB/c nude mice assessed as tumor inhibitory rate at 5 mg/kg, ip measured after 21 days relative to control; assay type: functional; details: Mus musculus, MGC-803, ip, 504 h, time 21 day
DNA [35] = assay: Induction of DNA damage in human MGC-803 cells assessed as increase in p-CHK2 levels at 0.5 to 1 uM by Western blot analysis; assay type: cell-based; details: dose 0.5-1 µM
MGC-803 [36] = assay: Induction of apoptosis in human MGC-803 cells assessed as necrotic cells at 1 uM after 24 hrs (reference value: 0.9%); assay type: functional
MGC-803 [37] = assay: Induction of cell cycle arrest in human MGC-803 cells assessed as accumulation of cells at G1 phase at 1 uM for 24 hrs (reference value: 62.6%); assay type: functional
MGC-803 [38] = assay: Induction of cell cycle arrest in human MGC-803 cells assessed as accumulation of cells at G1 phase at 0.25 uM for 24 hrs (reference value: 62.6%); assay type: functional

CN(C)CCN1C(=O)c2cccc3c(N4CCN(C(=O)c5ccccc5)CC4)c([N+](=O)[O-])cc(c23)C1=O
Activity (MGC-803 [1]): 71.16%
Activity (DNA [2]): Active
IC50 (MGC-803 [3]): 0.87 µM
inhibition in vivo at 15 mg/kg (MGC-803 [4]): 52.8%
Activity (MGC-803 [5]): 3.14%
IC50 (SK-OV-3): 1.88 µM
Activity (MGC-803 [6]): 0.92%
T/C (MGC-803 [7]): 59.8%
Activity (DNA [8]): Active
Activity (MGC-803 [9]): 69.18%
Activity (DNA [10]): Active
Activity (MGC-803 [11]): 11.29%
viability at 1 µM (MGC-803 [12]): 66.5%
Activity (DNA [13]): Active
viability at 0.5 µM (MGC-803 [14]): 74.9%
IC50 (SMMC-7721): 1.57 µM
Activity (MGC-803 [15]): 20.5%
IC50 (T-24): 0.42 µM
Activity [16]: Non-Toxic
Activity (MGC-803 [17]): Active
Activity (MGC-803 [18]): 11.6%
IC50 (A549): 0.41 µM
Activity (MGC-803 [19]): Active
Activity (MGC-803 [20]): Active
Activity (MGC-803 [21]): 37.8%
Activity (MGC-803 [22]): 5.6%
Activity (MGC-803 [23]): Active
Activity (MGC-803 [24]): 32%
Activity (MGC-803 [25]): 11.2%
Activity (MGC-803 [26]): 27.88%
viability at 2 µM (MGC-803 [27]): 41.9%
Activity (MGC-803 [28]): 10.1%
T/C (MGC-803 [29]): 47.1%
Activity (MGC-803 [30]): 3.4%
Activity (MGC-803 [31]): 17.5%
Activity (MGC-803 [32]): Active
inhibition (MGC-803 [33]): Active
inhibition in vivo at 5 mg/kg (MGC-803 [34]): 40.1%
Activity (DNA [35]): Active
Activity (MGC-803 [36]): 4.7%
Activity (MGC-803 [37]): 27.92%
Activity (MGC-803 [38]): 50.91%

Cc1ccc(S(=O)(=O)N2CCN(c3c([N+](=O)[O-])cc4c5c(cccc35)C(=O)N(CCN(C)C)C4=O)CC2)cc1
Activity (MGC-803 [1]): 75.18%
Activity (DNA [2]): Active
IC50 (MGC-803 [3]): 1.42 µM
inhibition in vivo at 15 mg/kg (MGC-803 [4]): 61.7%
Activity (MGC-803 [5]): 0.19%
IC50 (SK-OV-3): 0.32 µM
Activity (MGC-803 [6]): 0%
T/C (MGC-803 [7]): 52%
Activity (DNA [8]): Active
Activity (MGC-803 [9]): 43.96%
Activity (DNA [10]): Active
Activity (MGC-803 [11]): 5.83%
viability at 1 µM (MGC-803 [12]): 72.9%
Activity (DNA [13]): Active
viability at 0.5 µM (MGC-803 [14]): 78.5%
IC50 (SMMC-7721): 2.71 µM
Activity (MGC-803 [15]): 10.2%
IC50 (T-24): 0.33 µM
Activity [16]: Non-Toxic
Activity (MGC-803 [17]): Active
Activity (MGC-803 [18]): 7.6%
IC50 (A549): 0.27 µM
Activity (MGC-803 [19]): Active
Activity (MGC-803 [20]): Active
Activity (MGC-803 [21]): 40.4%
Activity (MGC-803 [22]): 6.2%
Activity (MGC-803 [23]): Active
Activity (MGC-803 [24]): 16.8%
Activity (MGC-803 [25]): 9.8%
Activity (MGC-803 [26]): 55.85%
viability at 2 µM (MGC-803 [27]): 66.9%
Activity (MGC-803 [28]): 9.7%
T/C (MGC-803 [29]): 38.4%
Activity (MGC-803 [30]): 4.2%
Activity (MGC-803 [31]): 13.1%
Activity (MGC-803 [32]): Active
inhibition (MGC-803 [33]): Active
inhibition in vivo at 5 mg/kg (MGC-803 [34]): 41.9%
Activity (DNA [35]): Active
Activity (MGC-803 [36]): 4.2%
Activity (MGC-803 [37]): 24.82%
Activity (MGC-803 [38]): 53.73%
